ChEMBL document CHEMBL4270575, “Lead-like Drugs: A Perspective” (J Med Chem, 2018)

Assays:
[1] = molecular target: 3',5'-cyclic-AMP phosphodiesterase 4A (Homo sapiens, UniProt P27815); experiment: Inhibition of PDE4A1A (unknown origin)
[2] = molecular target: T1, 3',5'-cyclic-AMP phosphodiesterase 4B (Homo sapiens, UniProt Q07343); experiment: Inhibition of PDE4B1 (unknown origin)
[3] = molecular target: T1, 3',5'-cyclic-AMP phosphodiesterase 4B; experiment: Inhibition of PDE4B2 (unknown origin)
[4] = molecular target: 3',5'-cyclic-AMP phosphodiesterase 4C (Homo sapiens, UniProt Q08493); experiment: Inhibition of PDE4C1 (unknown origin)
[5] = molecular target: 3',5'-cyclic-AMP phosphodiesterase 4D (Homo sapiens, UniProt Q08499); experiment: Inhibition of PDE4D7 (unknown origin)
Chain of 3',5'-cyclic-AMP phosphodiesterase 4D (Q08499 whole entry): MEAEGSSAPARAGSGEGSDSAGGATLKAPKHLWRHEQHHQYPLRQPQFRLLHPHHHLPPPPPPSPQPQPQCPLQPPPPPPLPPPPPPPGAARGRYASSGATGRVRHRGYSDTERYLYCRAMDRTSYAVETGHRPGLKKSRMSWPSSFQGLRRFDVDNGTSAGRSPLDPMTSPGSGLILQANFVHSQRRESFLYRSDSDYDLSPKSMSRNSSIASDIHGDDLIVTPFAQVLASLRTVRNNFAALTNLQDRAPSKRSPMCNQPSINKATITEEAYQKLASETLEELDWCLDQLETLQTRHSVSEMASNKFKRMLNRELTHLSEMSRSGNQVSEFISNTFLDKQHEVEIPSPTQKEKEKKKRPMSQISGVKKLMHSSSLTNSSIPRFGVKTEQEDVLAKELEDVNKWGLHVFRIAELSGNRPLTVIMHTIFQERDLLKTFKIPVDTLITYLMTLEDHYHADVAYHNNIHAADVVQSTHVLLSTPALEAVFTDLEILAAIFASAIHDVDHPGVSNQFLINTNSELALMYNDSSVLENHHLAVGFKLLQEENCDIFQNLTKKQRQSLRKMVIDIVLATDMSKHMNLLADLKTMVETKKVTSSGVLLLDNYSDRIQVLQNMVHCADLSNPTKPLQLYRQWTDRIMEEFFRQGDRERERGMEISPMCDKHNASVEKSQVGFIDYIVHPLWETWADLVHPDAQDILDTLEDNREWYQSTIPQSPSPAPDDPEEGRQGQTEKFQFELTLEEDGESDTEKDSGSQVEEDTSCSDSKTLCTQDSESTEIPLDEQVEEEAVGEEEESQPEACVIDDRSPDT

T1 sequence (Q07343 whole entry): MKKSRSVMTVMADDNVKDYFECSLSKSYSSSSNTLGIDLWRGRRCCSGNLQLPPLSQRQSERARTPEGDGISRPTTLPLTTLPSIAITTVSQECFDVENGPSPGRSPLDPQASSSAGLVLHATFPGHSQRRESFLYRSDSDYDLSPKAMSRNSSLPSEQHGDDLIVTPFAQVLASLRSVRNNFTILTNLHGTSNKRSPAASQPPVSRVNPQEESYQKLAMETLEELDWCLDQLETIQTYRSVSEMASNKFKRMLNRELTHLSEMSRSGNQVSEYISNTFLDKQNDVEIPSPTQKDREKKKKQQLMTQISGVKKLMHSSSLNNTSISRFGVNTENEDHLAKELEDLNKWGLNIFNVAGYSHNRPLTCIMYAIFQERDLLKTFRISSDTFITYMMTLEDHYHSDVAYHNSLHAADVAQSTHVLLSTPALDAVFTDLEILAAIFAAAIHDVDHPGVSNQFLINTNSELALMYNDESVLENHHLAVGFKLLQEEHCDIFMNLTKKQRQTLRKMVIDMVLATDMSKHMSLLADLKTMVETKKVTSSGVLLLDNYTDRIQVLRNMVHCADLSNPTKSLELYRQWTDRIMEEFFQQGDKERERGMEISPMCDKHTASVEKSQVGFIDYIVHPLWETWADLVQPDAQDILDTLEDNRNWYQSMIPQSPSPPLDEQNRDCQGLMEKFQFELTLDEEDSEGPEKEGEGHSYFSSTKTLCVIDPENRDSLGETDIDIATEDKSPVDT
Chain of 3',5'-cyclic-AMP phosphodiesterase 4A (P27815 whole entry): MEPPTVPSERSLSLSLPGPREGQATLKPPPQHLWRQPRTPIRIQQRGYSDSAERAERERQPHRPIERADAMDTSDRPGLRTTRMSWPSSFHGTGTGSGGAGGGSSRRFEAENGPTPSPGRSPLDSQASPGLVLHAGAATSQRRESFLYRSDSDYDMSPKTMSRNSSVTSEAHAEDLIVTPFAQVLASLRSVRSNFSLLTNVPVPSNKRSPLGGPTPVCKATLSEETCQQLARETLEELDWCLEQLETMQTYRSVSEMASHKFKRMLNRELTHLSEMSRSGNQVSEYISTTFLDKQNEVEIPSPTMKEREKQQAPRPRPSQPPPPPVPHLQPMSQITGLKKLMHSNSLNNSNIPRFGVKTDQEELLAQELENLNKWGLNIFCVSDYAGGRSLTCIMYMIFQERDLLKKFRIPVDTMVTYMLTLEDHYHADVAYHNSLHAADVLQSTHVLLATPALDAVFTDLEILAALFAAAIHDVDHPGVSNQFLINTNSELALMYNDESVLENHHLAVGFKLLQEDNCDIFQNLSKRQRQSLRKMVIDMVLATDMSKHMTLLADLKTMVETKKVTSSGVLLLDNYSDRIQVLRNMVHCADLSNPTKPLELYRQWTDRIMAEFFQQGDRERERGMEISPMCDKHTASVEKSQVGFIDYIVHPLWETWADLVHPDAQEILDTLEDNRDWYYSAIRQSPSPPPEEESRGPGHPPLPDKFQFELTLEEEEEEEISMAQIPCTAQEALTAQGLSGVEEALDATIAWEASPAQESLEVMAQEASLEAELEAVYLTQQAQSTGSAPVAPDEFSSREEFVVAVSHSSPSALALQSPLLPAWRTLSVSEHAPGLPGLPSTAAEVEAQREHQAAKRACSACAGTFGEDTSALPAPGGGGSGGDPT
Chain of 3',5'-cyclic-AMP phosphodiesterase 4C (Q08493 whole entry): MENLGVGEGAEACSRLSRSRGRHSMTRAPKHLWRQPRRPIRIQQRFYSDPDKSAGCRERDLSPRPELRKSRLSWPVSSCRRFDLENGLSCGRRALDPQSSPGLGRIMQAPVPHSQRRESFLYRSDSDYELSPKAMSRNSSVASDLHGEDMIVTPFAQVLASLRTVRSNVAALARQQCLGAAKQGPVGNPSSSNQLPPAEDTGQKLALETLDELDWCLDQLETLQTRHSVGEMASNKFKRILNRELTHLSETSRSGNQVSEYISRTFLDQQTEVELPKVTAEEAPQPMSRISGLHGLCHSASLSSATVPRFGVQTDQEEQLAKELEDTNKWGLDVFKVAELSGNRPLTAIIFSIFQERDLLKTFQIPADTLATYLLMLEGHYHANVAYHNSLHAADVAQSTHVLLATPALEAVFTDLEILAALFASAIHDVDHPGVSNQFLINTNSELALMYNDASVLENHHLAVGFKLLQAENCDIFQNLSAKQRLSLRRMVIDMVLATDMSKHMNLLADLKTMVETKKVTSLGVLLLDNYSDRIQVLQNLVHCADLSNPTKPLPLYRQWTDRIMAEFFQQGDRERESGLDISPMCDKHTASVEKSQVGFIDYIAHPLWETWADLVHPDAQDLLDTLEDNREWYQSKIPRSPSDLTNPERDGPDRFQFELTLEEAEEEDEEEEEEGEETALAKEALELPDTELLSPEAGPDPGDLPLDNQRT

IC50 [1]: 55 to 340 nM
IC50 [2]: 55 to 340 nM
IC50 [3]: 55 to 340 nM
IC50 [4]: 55 to 340 nM
IC50 [5]: 55 to 340 nM
SMILES: N#Cc1ccc(Oc2ccc3c(c2)COB3O)cc1 [CRISABOROLE]
